According to PubChem BioAssay AID330 (DTP/NCI, 2004):
Several values for one entry are separate records, joined by “and”; a condition that tells them apart may be missing. Equal values may be shown once. Inconclusive results and toxic doses are left out. How the source made its calls: active means survival T/C of 150% or more; inactive means T/C below 125% in these data. Numbered stars: 1 amine (or outer) side, 2 acyl side, 3 side chain; on linkers, the order of the positions; unused ones are H or OH. Square brackets hold non-standard residues; d marks the D form. Peptide text beside a SMILES is read from it. X21 = O=C(C1=CN(Cc2ccccc2)C=CC1N[*:1])[*:2]

Tested on: P388 leukemia ip, CD2F1 mice, survival T/C
Assay: NCI In Vivo Anticancer Drug Screen. Data for tumor model P388 Leukemia (intraperitoneal) in CD2F1 (CDF1) mice
Conditions: endpoint: median survival time, higher = longer survival
Procedure, shortened: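 Mice carrying the transplanted tumor received test compound or vehicle. Survival was recorded in each group, and the value is the treated-group measurement divided by that of the vehicle-treated control group.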

[1] = dose: 60.0 mg/kg/injection, schedule: Q01DX005 (ip), vehicle: saline with Tween-80
[2] = dose: 120.0 mg/kg/injection, schedule: Q01DX005 (ip), vehicle: saline with Tween-80
[3] = dose: 240.0 mg/kg/injection, schedule: Q01DX005 (ip), vehicle: saline with Tween-80
[4] = dose: 50.0 mg/kg/injection, schedule: Q01DX005 (ip), vehicle: saline with Tween-80
[5] = dose: 100.0 mg/kg/injection, schedule: Q01DX005 (ip), vehicle: saline with Tween-80
[6] = dose: 200.0 mg/kg/injection, schedule: Q01DX005 (ip), vehicle: saline with Tween-80
[7] = dose: 50.0 mg/kg/injection, schedule: Q01DX009 (ip), vehicle: saline
[8] = dose: 100.0 mg/kg/injection, schedule: Q01DX009 (ip), vehicle: saline
[9] = dose: 200.0 mg/kg/injection, schedule: Q01DX009 (ip), vehicle: saline
[10] = dose: 50.0 mg/kg/injection, schedule: Q01DX005 (ip), vehicle: Klucel (hydroxypropylcellulose) (HPC)
[11] = dose: 100.0 mg/kg/injection, schedule: Q01DX005 (ip), vehicle: Klucel (hydroxypropylcellulose) (HPC)
[12] = dose: 200.0 mg/kg/injection, schedule: Q01DX005 (ip), vehicle: Klucel (hydroxypropylcellulose) (HPC)
[13] = dose: 6.25 mg/kg/injection, schedule: Q01DX009 (ip), vehicle: saline
[14] = dose: 12.5 mg/kg/injection, schedule: Q01DX009 (ip), vehicle: saline
[15] = dose: 25.0 mg/kg/injection, schedule: Q01DX009 (ip), vehicle: saline
[16] = dose: 30.0 mg/kg/injection, schedule: Q01DX005 (ip), vehicle: saline with Tween-80
[17] = dose: 100.0 mg/kg/injection, schedule: Q01DX009 (ip), vehicle: Klucel (hydroxypropylcellulose) (HPC)

Measured: T/C

O=C(CCCl)Nc1cccc(CCC(=O)c2ccccc2NC(=O)CCCl)c1
inactive: [1] 89 % of control | [2] 93 % of control | [3] 88 % of control

CC1(C)CN(c2ccccc2)N(C(=O)C(=O)N2C(=O)C(C)(C)CN2c2ccccc2)C1=O
inactive: dose: 100.0 mg/kg/injection, schedule: Q04DX002 (ip), vehicle: saline 104 % of control | dose: 200.0 mg/kg/injection, schedule: Q04DX002 (ip), vehicle: saline 102 % of control | dose: 400.0 mg/kg/injection, schedule: Q04DX002 (ip), vehicle: saline 100 % of control

CC(O)COCCOCCO (stereo not drawn)
inactive: dose: 100.0 mg/kg/injection, schedule: Q04DX003 (ip), vehicle: saline 100 % of control | dose: 200.0 mg/kg/injection, schedule: Q04DX003 (ip), vehicle: saline 100 % of control | dose: 400.0 mg/kg/injection, schedule: Q04DX003 (ip), vehicle: saline 104 % of control

Cn1c2ccccc2c(=O)c2cc(NC(=O)CCC(=O)Nc3ccc4c(c3)c(=O)c3ccccc3n4C)ccc21
inactive: [4] 99 % of control | [5] 97 % of control | [6] 97 % of control

CC1(N)C(=O)NC(=O)c2cnccc21 (stereo not drawn)
inactive: dose: 100.0 mg/kg/injection, schedule: Q01DX001 (ip), vehicle: saline 104 % of control | dose: 200.0 mg/kg/injection, schedule: Q01DX001 (ip), vehicle: saline 107 % of control | dose: 400.0 mg/kg/injection, schedule: Q01DX001 (ip), vehicle: saline 97 % of control

CC1=NN(c2cccc(S(=O)(=O)O)c2)C(=O)C1N=Nc1cc(Cl)cc(S(=O)(=O)O)c1O.O.[Cr] (stereo not drawn)
inactive: [7] 114 % of control | [8] 108 % of control | [9] 115 % of control

Cc1ccc(S(=O)(=O)N2CCCC2C(=O)NNC(N)=S)cc1 (stereo not drawn)
inactive: [10] 99 % of control | [11] 89 % of control | [12] 91 % of control

C[CH2][Sn][Cl]
inactive: [13] 98 % of control | [14] 98 % of control | [15] 91 % of control

COc1cc(C2C(C(C)=O)=C(C)Oc3cc4c(cc32)OCO4)cc(OC)c1OC (stereo not drawn)
inactive: [16] 89 % of control | [1] 87 % of control and 89 % of control | [2] 90 % of control | [3] 87 % of control

Cc1ccc(S(=O)(=O)/N=C2\CCN(S(=O)(=O)c3ccccc3)N2S(=O)(=O)c2ccc(C)cc2)cc1
inactive: [10] 99 % of control | [11] 90 % of control | [12] 94 % of control

Cn1c2ccc(Cl)cc2c2c3ncncc3ccc21
inactive: dose: 50.0 mg/kg/injection, schedule: Q01DX001 (ip), vehicle: Klucel (hydroxypropylcellulose) (HPC) 96 % of control | dose: 100.0 mg/kg/injection, schedule: Q01DX001 (ip), vehicle: Klucel (hydroxypropylcellulose) (HPC) 89 % of control | dose: 200.0 mg/kg/injection, schedule: Q01DX001 (ip), vehicle: Klucel (hydroxypropylcellulose) (HPC) 91 % of control

NC(=O)c1ncn(C2OC(COP(=O)(O)O)C(O)C2O)n1 (stereo not drawn)
inactive: [7] 104 % of control and 106 % of control | [8] 107 % of control and 109 % of control | [9] 113 % of control and 120 % of control

O=C(OCC1N=C1c1ccccc1)c1ccc([N+](=O)[O-])cc1 (stereo not drawn)
inactive: dose: 50.0 mg/kg/injection, schedule: Q04DX003 (ip), vehicle: suspension in saline 99 % of control | dose: 100.0 mg/kg/injection, schedule: Q04DX003 (ip), vehicle: suspension in saline 98 % of control | dose: 200.0 mg/kg/injection, schedule: Q04DX003 (ip), vehicle: suspension in saline 100 % of control

[Cl][Sb]([Cl])([Cl])([c]1ccccc1)[c]1ccccc1
inactive: [13] 101 % of control | [14] 98 % of control | [15] 91 % of control

S=C(S)n1nc(-c2ccccc2)c(N=Nc2ccc(Br)cc2)c1-c1ccccc1
inactive: dose: 100.0 mg/kg/injection, schedule: Q04DX002 (ip), vehicle: Klucel (hydroxypropylcellulose) (HPC) 107 % of control | dose: 200.0 mg/kg/injection, schedule: Q04DX002 (ip), vehicle: Klucel (hydroxypropylcellulose) (HPC) 110 % of control | dose: 400.0 mg/kg/injection, schedule: Q04DX002 (ip), vehicle: Klucel (hydroxypropylcellulose) (HPC) 113 % of control

NS(=O)(=O)c1cccnc1Nc1ccc(Cl)c(Cl)c1
inactive: [7] 86 % of control | [8] 93 % of control | [9] 101 % of control

CCN(CC)CCNc1ccc(C)c2sc3cccc(O)c3c(=O)c12
active: [17] 181 % of control

CC(C)n1cc(C(C)(C)C)nc1SSc1nc(C(C)(C)C)cn1C(C)C
inactive: [10] 100 % of control | [11] 96 % of control

CC1CN=C(c2ccc(NC(=O)NCCCCCCCCCCCCNC(=O)Nc3ccc(C4=NCC(C)N4)cc3)cc2)N1 (stereo not drawn)
inactive: dose: 6.25 mg/kg/injection, schedule: Q01DX005 (ip), vehicle: saline with Tween-80 103 % of control | dose: 12.5 mg/kg/injection, schedule: Q01DX005 (ip), vehicle: saline with Tween-80 103 % of control | dose: 25.0 mg/kg/injection, schedule: Q01DX005 (ip), vehicle: saline with Tween-80 108 % of control | [4] 106 % of control | [5] 116 % of control

O=c1[nH][nH]c(=O)c2c1CCCC2
inactive: [15] 107 % of control | [7] 95 % of control | [8] 100 % of control | [9] 101 % of control

O=C(O)c1c(Cl)n(Cc2ccc(Cl)cc2Cl)c2ccccc12
inactive: dose: 60.0 mg/kg/injection, schedule: Q01DX005 (ip), vehicle: Klucel (hydroxypropylcellulose) (HPC) 100 % of control | dose: 120.0 mg/kg/injection, schedule: Q01DX005 (ip), vehicle: Klucel (hydroxypropylcellulose) (HPC) 103 % of control and 93 % of control | dose: 240.0 mg/kg/injection, schedule: Q01DX005 (ip), vehicle: Klucel (hydroxypropylcellulose) (HPC) 104 % of control and 93 % of control

CC(Cc1ccccc1)N(C)Cc1ccc(-c2ccc(Cl)cc2)o1 (stereo not drawn)
inactive: [1] 110 % of control | [2] 107 % of control | [3] 107 % of control

CCOC(=O)Nc1cc(Cl)c2ncn(C(=O)OCC)c2n1
inactive: dose: 50.0 mg/kg/injection, schedule: Q01DX009 (ip), vehicle: Klucel (hydroxypropylcellulose) (HPC) 96 % of control | [17] 90 % of control | dose: 200.0 mg/kg/injection, schedule: Q01DX009 (ip), vehicle: Klucel (hydroxypropylcellulose) (HPC) 93 % of control

COc1ccc(C(c2c(O)c3ccccc3oc2=O)N2CCOCC2)cc1 (stereo not drawn)
inactive: dose: 15.0 mg/kg/injection, schedule: Q01DX005 (ip), vehicle: saline with Tween-80 99 % of control | [16] 97 % of control | [1] 100 % of control and 94 % of control

COC1=CC(C(=O)O)C=C(OC)C1
inactive: [4] 102 % of control | [5] 104 % of control | [6] 89 % of control

CCc1ccc2c(c1)C(O)(C#Cc1ccccc1)c1cc(CC)ccc1C2(O)C#Cc1ccccc1 (stereo not drawn)
inactive: dose: 100.0 mg/kg/injection, schedule: Q04DX002 (ip), vehicle: saline with Tween-80 93 % of control | dose: 200.0 mg/kg/injection, schedule: Q04DX002 (ip), vehicle: saline with Tween-80 93 % of control | dose: 400.0 mg/kg/injection, schedule: Q04DX002 (ip), vehicle: saline with Tween-80 93 % of control

Cn1nc2c(c1-c1ccncc1)CCc1ccccc1-2
inactive: dose: 12.5 mg/kg/injection, schedule: Q01DX009 (ip), vehicle: other 110 % of control | dose: 25.0 mg/kg/injection, schedule: Q01DX009 (ip), vehicle: other 105 % of control | dose: 50.0 mg/kg/injection, schedule: Q01DX009 (ip), vehicle: other 115 % of control | dose: 100.0 mg/kg/injection, schedule: Q01DX009 (ip), vehicle: other 107 % of control | dose: 200.0 mg/kg/injection, schedule: Q01DX009 (ip), vehicle: other 103 % of control

O=C1NC2(CN3CCC2CC3)C(=O)N1CN(Cc1ccccc1)c1ccccc1 (stereo not drawn)
inactive: [1] 99 % of control | [2] 99 % of control | [3] 99 % of control

COCCCN1CNC(=S)NC1
inactive: [4] 101 % of control | [5] 100 % of control | [6] 101 % of control

COc1ccc2c(c1)C(=O)CC2
inactive: [10] 106 % of control | [11] 101 % of control | [12] 101 % of control

CC1NC(=O)C(C(C)C)NC(=O)C2=CN(Cc3ccccc3)C=CC2NC(=O)C(C)NC(=O)C(C(C)C)NC(=O)C2=CN(Cc3ccccc3)C=CC2NC1=O (stereo not drawn) (cyclo([X21]VA[X21]VA); configuration not given here)
inactive: [1] 94 % of control | [2] 93 % of control

O=C(/C=C/c1c(-c2ccccc2)[nH]c2ccccc12)c1cccc([N+](=O)[O-])c1
inactive: [1] 98 % of control | [2] 90 % of control | [3] 90 % of control
